Assay results published in BindingDB's records for patent US9090621 (Principia Biopharma, 2015).

Target: Tyrosine-protein kinase BTK (Homo sapiens, UniProt Q06187)
Assay: Enzymatic Activity Assay
Settings: 25 °C
Method: A Caliper-based kinase assay (Caliper Life Sciences, Hopkinton, Mass.) was used to measure inhibition of Btk kinase activity of a compound of Formula (IA), (I′) or (I). […] The reaction was then terminated with EDTA, final concentration 20 mM and the phosphorylated reaction product was quantified on a Caliper Desktop Profiler (Caliper LabChip 3000).

Sequence of Tyrosine-protein kinase BTK (Q06187 whole entry): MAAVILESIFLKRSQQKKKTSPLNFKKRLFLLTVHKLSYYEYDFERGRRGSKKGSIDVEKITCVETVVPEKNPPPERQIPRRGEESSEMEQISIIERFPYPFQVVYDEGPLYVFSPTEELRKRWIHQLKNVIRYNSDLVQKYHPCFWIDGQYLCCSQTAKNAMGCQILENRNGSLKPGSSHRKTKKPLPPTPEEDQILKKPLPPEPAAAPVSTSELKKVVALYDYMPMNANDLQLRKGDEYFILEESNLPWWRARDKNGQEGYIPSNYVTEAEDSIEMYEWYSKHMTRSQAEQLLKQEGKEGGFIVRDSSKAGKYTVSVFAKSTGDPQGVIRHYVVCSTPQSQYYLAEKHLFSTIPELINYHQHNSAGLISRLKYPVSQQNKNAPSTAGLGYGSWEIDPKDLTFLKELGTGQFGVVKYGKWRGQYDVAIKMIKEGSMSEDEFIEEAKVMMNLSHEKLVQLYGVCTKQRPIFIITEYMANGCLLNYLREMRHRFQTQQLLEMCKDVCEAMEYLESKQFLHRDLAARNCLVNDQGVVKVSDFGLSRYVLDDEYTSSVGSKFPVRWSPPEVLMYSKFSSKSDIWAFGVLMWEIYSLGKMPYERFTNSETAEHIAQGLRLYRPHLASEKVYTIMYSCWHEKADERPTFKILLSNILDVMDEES

Question: `COc1cc(-c2nn(C3CCCN(C(=O)C(C#N)=CC4CC4)C3)c3ncnc(N)c23)ccc1Oc1ccc(Cl)c(Cl)c1` (stereo unspecified) [US9090621, 5] was tested. Which IC50 did it give?
Answer: 1 nM
